Source: patent publication US12264158B2, “Protein kinase MKK4 inhibitors for promoting liver regeneration or reducing or preventing hepatocyte death” (HEPAREGENIX GMBH, priority 2018, dated 2025)

How the values were obtained:
JNK1 = molecular target: T1, JNK1 (Homo sapiens, UniProt P45983); test: KINOMEscan competition binding assay, selectivity against off-target JNK1; details: concentration of 100 nM
T1 construct: M1/Q384; host or cells: HEK-293
Method in brief: (§1)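 DNA-tagged kinases expressed in HEK-293 cells compete between test compound and immobilized ligand on blocked beads. Bound kinase is eluted and quantified by qPCR of the DNA tag. Compounds were tested at the indicated final concentrations, prepared from 10 mM stocks.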

BRaf = BRaf (Homo sapiens, UniProt P15056); test: KINOMEscan competition binding assay, selectivity against off-target BRaf; details: concentration of 100 nM
Method in brief: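 Competition binding: test compound competes with an immobilized ligand for DNA-tagged BRaf, and kinase captured on the ligand is quantified by qPCR of the DNA tag. Compounds from 10 mM stocks were tested at the indicated final concentrations.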

MEKK2 = molecular target: T2, MEKK2 (Homo sapiens, UniProt Q9Y2U5); test: Radiometric protein kinase assay, MEKK2; format: biochemical; details: substrate Casein, ATP 0.2 μM; read-out: MEKK2, potency derived from IC50-values
T2 construct: purchased ProQinase #0583-0000-1
T2 sequence (Q9Y2U5 1-619): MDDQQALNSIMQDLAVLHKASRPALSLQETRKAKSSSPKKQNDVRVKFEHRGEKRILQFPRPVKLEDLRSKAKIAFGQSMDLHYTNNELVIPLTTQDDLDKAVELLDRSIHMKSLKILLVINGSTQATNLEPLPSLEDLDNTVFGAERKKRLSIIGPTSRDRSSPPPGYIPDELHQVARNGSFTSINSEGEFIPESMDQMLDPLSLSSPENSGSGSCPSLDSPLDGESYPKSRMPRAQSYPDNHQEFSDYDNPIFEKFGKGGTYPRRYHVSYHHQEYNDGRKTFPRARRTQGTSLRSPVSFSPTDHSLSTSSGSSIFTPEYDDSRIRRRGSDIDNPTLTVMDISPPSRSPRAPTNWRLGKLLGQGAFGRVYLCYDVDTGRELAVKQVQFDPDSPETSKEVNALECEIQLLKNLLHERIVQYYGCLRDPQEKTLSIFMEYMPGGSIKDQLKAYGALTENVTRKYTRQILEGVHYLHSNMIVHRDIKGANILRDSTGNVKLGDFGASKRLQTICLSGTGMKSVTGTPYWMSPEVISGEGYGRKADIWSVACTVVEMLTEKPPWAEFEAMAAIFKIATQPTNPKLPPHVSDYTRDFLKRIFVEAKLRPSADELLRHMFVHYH
Method in brief: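 Kinase activity measured radiometrically: stopped reactions were captured on filter plates, washed with 150 mM H3PO4 and ethanol, and incorporated radioactivity counted by liquid scintillation.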

MKK4-MEKK2 mix = molecular target: T3, MKK4-MEKK2 mix (Homo sapiens, UniProt P45985); test: Radiometric protein kinase assay, MEKK2 dependent MKK4 activation (cascade); format: biochemical; details: substrate JNK1 KRKR, ATP 0.2 μM, read-out: Cascade, potency derived from IC50-values
T3 construct: MEKK2, recombinant, active: ProQinase product #0583-0000-1
T3 sequence (P45985 2-399): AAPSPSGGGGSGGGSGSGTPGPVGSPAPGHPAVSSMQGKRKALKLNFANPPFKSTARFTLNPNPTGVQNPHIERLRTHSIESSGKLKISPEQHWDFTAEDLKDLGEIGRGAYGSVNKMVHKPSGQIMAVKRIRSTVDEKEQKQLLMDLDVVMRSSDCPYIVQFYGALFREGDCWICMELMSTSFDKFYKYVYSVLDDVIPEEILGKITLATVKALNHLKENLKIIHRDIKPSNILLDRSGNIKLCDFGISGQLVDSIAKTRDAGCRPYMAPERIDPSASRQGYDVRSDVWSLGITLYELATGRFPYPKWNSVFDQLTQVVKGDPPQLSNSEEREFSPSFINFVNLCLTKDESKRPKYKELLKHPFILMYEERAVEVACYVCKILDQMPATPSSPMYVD
Method: The activation step is done in 50 mM HEPES pH 7.5, 50 mM NaCl, 3.8 mM MgCl2, 2.5 mM DTT, 10% (v/v) glycerol. Final DMSO concentration is 1%. The activation mixture is pipetted in the following order • 2.5 μl compound in 4% DMSO • 2.5 μl ATP/MgCl2 mix • 5 μl premixed kinase solution MKK4:MEKK2 10:1 (w/w)
Protein concentrations in the activation mix are 1 μM MKK4 and 50 nM MEKK2.
(§2) A radiometric protein kinase assay was used for measuring the kinase activity of the respective protein kinases. All kinase assays were performed in 96-well polypropylene plates. After the reactions were stopped, the assay mixtures were transferred to 96-well MSFC filter-plates (Millipore). The reaction mix was passed through the filter membrane by aspiration, the membrane was washed 3 times with 150 mM H3PO4, once with ethanol, dried and liquid scintillation cocktail was added. Radioactivity was determined by counting of the samples in a Microbeta multiwell scintillation counter (Wallac).

MKK7 = molecular target: T4, MKK7 (Homo sapiens, UniProt O14733); test: KINOMEscan competition binding assay, selectivity against off-target MKK7; details: concentration of 100 nM
T4 construct: M1/R419; host or cells: HEK-293
T4 sequence (O14733 1-419): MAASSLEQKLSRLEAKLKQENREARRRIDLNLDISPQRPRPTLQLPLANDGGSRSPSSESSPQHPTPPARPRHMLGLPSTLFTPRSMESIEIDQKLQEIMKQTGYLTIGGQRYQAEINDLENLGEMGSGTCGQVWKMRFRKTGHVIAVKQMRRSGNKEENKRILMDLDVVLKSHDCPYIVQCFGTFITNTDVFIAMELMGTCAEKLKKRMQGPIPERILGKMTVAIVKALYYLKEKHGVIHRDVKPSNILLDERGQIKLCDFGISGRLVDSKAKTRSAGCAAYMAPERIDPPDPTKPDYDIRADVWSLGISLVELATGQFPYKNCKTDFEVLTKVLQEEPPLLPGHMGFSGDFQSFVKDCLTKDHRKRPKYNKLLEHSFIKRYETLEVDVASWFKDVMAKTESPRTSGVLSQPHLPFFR
Method in brief: as §1

MKK4 = molecular target: T5, MKK4 (Homo sapiens, UniProt P45985); test: KINOMEscan competition binding assay, MKK4 potency; details: concentration of 100 nM
T5 construct: S84/D399; host or cells: HEK-293
T5 sequence (P45985 84-399): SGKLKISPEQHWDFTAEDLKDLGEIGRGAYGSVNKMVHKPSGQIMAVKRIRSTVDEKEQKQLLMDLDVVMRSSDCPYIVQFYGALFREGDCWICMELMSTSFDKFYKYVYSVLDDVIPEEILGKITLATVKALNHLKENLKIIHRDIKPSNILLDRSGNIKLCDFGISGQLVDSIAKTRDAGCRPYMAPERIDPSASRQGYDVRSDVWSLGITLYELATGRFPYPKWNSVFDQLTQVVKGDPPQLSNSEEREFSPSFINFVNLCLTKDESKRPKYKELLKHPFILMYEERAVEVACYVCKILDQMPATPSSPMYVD
Method in brief: as §1

MKK4 active = molecular target: T6, MKK4 active (Homo sapiens, UniProt P45985); test: Radiometric protein kinase assay, MKK4 active; format: biochemical; details: substrate JNK1 KRKR, ATP 0.2 μM, read-out: MKK4, potency derived from IC50-values
T6 construct: purchased ProQinase #0948-0000-1
T6 sequence (P45985 1-399): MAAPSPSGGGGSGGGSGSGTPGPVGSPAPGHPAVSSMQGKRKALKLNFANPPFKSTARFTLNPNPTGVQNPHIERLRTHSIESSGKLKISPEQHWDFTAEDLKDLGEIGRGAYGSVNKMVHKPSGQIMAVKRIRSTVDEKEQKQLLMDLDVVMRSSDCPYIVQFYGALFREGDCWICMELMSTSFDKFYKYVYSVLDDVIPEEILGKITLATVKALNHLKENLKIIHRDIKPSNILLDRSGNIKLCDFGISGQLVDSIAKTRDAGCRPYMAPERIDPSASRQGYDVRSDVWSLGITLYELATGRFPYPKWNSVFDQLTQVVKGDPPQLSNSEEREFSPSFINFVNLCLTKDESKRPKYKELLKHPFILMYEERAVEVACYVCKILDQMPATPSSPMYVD
Method: as §2

Sequence of BRaf (P15056 whole entry): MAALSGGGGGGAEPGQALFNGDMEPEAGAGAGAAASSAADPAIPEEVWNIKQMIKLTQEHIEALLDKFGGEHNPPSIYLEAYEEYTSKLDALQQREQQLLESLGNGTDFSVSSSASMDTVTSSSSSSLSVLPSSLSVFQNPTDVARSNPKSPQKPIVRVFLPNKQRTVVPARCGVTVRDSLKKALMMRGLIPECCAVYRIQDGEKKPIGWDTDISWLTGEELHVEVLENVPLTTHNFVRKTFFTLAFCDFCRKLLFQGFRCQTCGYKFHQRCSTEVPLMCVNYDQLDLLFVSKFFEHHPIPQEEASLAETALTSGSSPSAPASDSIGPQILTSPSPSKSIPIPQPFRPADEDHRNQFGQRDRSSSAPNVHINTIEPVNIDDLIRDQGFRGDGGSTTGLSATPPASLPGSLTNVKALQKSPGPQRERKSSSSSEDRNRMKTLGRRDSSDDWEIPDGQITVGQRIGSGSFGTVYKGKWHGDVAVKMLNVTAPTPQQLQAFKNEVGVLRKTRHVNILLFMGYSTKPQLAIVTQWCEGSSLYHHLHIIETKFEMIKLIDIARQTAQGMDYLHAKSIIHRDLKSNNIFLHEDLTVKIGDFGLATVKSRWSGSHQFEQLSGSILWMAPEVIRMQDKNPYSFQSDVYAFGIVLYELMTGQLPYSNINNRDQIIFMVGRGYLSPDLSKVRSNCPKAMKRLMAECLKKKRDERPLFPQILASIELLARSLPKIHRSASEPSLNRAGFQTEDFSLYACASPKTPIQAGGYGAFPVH
T1 sequence (P45983 1-384 isoform P45983-2): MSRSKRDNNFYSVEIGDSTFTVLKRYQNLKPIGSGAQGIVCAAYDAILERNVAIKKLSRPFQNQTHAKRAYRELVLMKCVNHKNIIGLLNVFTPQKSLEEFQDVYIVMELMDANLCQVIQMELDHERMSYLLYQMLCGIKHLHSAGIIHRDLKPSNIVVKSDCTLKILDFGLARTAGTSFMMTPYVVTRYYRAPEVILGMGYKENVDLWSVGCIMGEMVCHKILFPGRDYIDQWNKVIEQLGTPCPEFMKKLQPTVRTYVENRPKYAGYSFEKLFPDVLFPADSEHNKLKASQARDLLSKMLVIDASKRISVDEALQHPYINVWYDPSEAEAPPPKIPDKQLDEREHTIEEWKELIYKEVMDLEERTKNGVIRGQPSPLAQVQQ

Compound | Selectivity vs. JNK1, ratio PoC(JNK1)/PoC(MKK4) (JNK1) | Selectivity vs. BRaf, ratio PoC(BRaf)/PoC(MKK4) (BRaf) | IC50 (MEKK2) [nM] | IC50 (MKK4-MEKK2 mix) [nM] | Selectivity vs. MKK7, ratio PoC(MKK7)/PoC(MKK4) (MKK7) | MKK4, residual percent of control binding (PoC) (MKK4) | IC50 (MKK4 active) [nM]
CCCS(=O)(=O)Nc1ccc(F)c(C(=O)c2n[nH]c3ncc(-c4ccccc4C)cc23)c1F [Example 13, N-(2,4-difluoro-3-(5-o-tolyl-1H-pyrazolo[3,4-b]pyridine-3-carbonyl)-phenyl)propane-1-sulfon-amide] | ++ (30 > PoC(JNK1)/PoC(MKK4) ≥ 10) | + (10 > PoC(BRaf)/PoC(MKK4) ≥ 3) | 1000 to 10000 | 1000 to 10000 | ++ (30 > PoC(MKK7)/PoC(MKK4) ≥ 10) | ++ (1 ≤ PoC < 10) | < 500
CCCS(=O)(=O)Nc1ccc(F)c(C(=O)c2n[nH]c3ncc(-c4ccccc4OC)cc23)c1F [Example 14, N-(2,4-difluoro-3-(5-(2-methoxyphenyl)-1H-pyrazo-lo[3,4-b]pyridine-3-carbonyl)-phenyl)propane-1-sulfon-amide] | ++ (30 > PoC(JNK1)/PoC(MKK4) ≥ 10) | +++ (PoC(BRaf)/PoC(MKK4) ≥ 30) | > 10000 | 1000 to 10000 | +++ (PoC(MKK7)/PoC(MKK4) ≥ 30) | ++ (1 ≤ PoC < 10) | 500 to 1000
CCCS(=O)(=O)Nc1ccc(F)c(C(=O)c2n[nH]c3ncc(-c4ccc(S(N)(=O)=O)cc4)cc23)c1F [Example 15, 4-(3-(2,6-difluoro-3-(propyl-sulfonamido)benzoyl)-1H-pyrazolo[3,4-b]pyridin-5-yl)benzene-sulfonamide] | +++ (PoC(JNK1)/PoC(MKK4) ≥ 30) | + (10 > PoC(BRaf)/PoC(MKK4) ≥ 3) | 1000 to 10000 | 1000 to 10000 | +++ (PoC(MKK7)/PoC(MKK4) ≥ 30) | +++ (PoC < 1) | < 500
CCCS(=O)(=O)Nc1ccc(F)c(C(=O)c2n[nH]c3ncc(-c4cccc(OC)c4)cc23)c1F [Example 17, N-(2,4-difluoro-3-(5-(3-methoxyphenyl)-1H-pyrazo-lo[3,4-b]pyridine-3-carbonyl)-phenyl)propane-1-sulfon-amide] | ++ (30 > PoC(JNK1)/PoC(MKK4) ≥ 10) | + (10 > PoC(BRaf)/PoC(MKK4) ≥ 3) | > 10000 | 1000 to 10000 | ++ (30 > PoC(MKK7)/PoC(MKK4) ≥ 10) | ++ (1 ≤ PoC < 10) | 1000 to 10000
CCCS(=O)(=O)Nc1ccc(F)c(C(=O)c2n[nH]c3ncc(-c4ccc(N)cc4)cc23)c1F [Example 18, N-(3-(5-(4-aminophenyl)-1H-pyrazolo[3,4-b]pyridine-3-carbonyl)-2,4-difluorophenyl)-propane-1-sulfonamide] | +++ (PoC(JNK1)/PoC(MKK4) ≥ 30) | ++ (30 > PoC(BRaf)/PoC(MKK4) ≥ 10) | 1000 to 10000 | 500 to 1000 | +++ (PoC(MKK7)/PoC(MKK4) ≥ 30) | +++ (PoC < 1) | < 500
CCCS(=O)(=O)Nc1ccc(F)c(C(=O)c2n[nH]c3ncc(-c4ccc(O)cc4)cc23)c1F [Example 19, N-(2,4-difluoro-3-(5-(4-hydroxyphenyl)-1H-pyrazo-lo[3,4-b]pyridine-3-carbonyl)-phenyl)propane-1-sulfon-amide] | +++ (PoC(JNK1)/PoC(MKK4) ≥ 30) | ++ (30 > PoC(BRaf)/PoC(MKK4) ≥ 10) | 1000 to 10000 | 1000 to 10000 | +++ (PoC(MKK7)/PoC(MKK4) ≥ 30) | +++ (PoC < 1) | < 500
CCCS(=O)(=O)Nc1ccc(F)c(C(=O)c2n[nH]c3ncc(-c4ccccc4O)cc23)c1F [Example 21, N-(2,4-difluoro-3-(5-(2-hydroxyphenyl)-1H-pyrazo-lo[3,4-b]pyridine-3-carbonyl)-phenyl)propane-1-sulfon-amide] | + (10 > PoC(JNK1)/PoC(MKK4) ≥ 3) | + (10 > PoC(BRaf)/PoC(MKK4) ≥ 3) | 1000 to 10000 | 1000 to 10000 | ++ (30 > PoC(MKK7)/PoC(MKK4) ≥ 10) | ++ (1 ≤ PoC < 10) | 500 to 1000
